Results: patent US20260274833A1 (NiKang Therapeutics, Inc., priority 2022, published 2026)

biological target: T1, CDK2 (Homo sapiens, UniProt P24941); assay: Phospho-RB measurement in OVCAR3 cells (HTRF phospho-RB cellular kit); type: cell-based; conditions: inhibition of RB phosphorylation at S807/811 (HTRF), 24 h compound treatment
T1 construct: endogenous in cells; host or cells: OVCAR3 cells
How it was run: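 IC50 came from a four-parameter logistic fit of the DMSO-normalized TR-FRET ratio (665/620 nm). That ratio reflects RB phosphorylation at S807/811, read with an HTRF antibody pair 4 h after adding lysate at room temperature.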

| IC50 [nM] | SMILES |
| --- | --- |
| > 10000 | CC(=O)N1CCN(S(=O)(=O)Nc2cccc(-c3nc(C(C)(C)C)sc3-c3ccnc(NC4CCN(S(C)(=O)=O)CC4)n3)c2F)CC1 [Example 88, 4-acetyl-N-(3-(2-(tert-butyl)-5-(2-((1-(methylsulfonyl)piperidin-4-yl)amino)-pyrimidin-4-yl)thiazol-4-yl)-2-fluoro-phenyl)-piperazine-1-sulfonamide] |

same assay, conditions: inhibition of RB phosphorylation at S807/811 (HTRF, TR-FRET ratio 665/620), 24 h compound treatment, 0.3 to 10,000 nM

| IC50 [nM] | SMILES |
| --- | --- |
| 679 | CC1CCN(S(=O)(=O)Nc2cccc(-c3nc(C(C)(C)C)sc3-c3ccnc(NC4CCN(S(C)(=O)=O)CC4)n3)c2F)CC1 [Example 63, N-(3-(2-(tert-butyl)-5-(2-((1-(methylsulfonyl)-piperidin-4-yl)amino)-pyrimidin-4-yl)thiazol-4-yl)-2-fluoro-phenyl)-4-methylpiperidine-1-sulfonamide] |
| 735 | CC(C)(C)c1nc(-c2cccc(NS(=O)(=O)N3CCN(c4ccccc4)CC3)c2F)c(-c2ccnc(NC3CCN(S(C)(=O)=O)CC3)n2)s1 [Example 64, N-(3-(2-(tert-butyl)-5-(2-((1-(methylsulfonyl)-piperidin-4-yl)amino)-pyrimidin-4-yl)thiazol-4-yl)-2-fluoro-phenyl)-4-phenylpiperazine-1-sulfonamide] |
| 588 | CC(C)(C)c1nc(-c2cccc(NS(=O)(=O)N3CCC(Oc4ccccc4)CC3)c2F)c(-c2ccnc(NC3CCN(S(C)(=O)=O)CC3)n2)s1 [Example 65, N-(3-(2-(tert-butyl)-5-(2-((1-(methylsulfonyl)-piperidin-4-yl)amino)-pyrimidin-4-yl)thiazol-4-yl)-2-fluoro-phenyl)-4-phenoxypiperidine-1-sulfonamide] |
| > 5000 | CC1CCCCN1S(=O)(=O)Nc1cccc(-c2nc(C(C)(C)C)sc2-c2ccnc(NC3CCN(S(C)(=O)=O)CC3)n2)c1F (stereo not shown) [Example 66, N-(3-(2-(tert-butyl)-5-(2-((1-(methylsulfonyl)-piperidin-4-yl)amino)-pyrimidin-4-yl)thiazol-4-yl)-2-fluoro-phenyl)-2-methylpiperidine-1-sulfonamide] |
| 8260 | CC(C)(C)c1nc(-c2cccc(NS(=O)(=O)N3CCCCC3c3ccccc3)c2F)c(-c2ccnc(NC3CCN(S(C)(=O)=O)CC3)n2)s1 (stereo not shown) [Example 67, N-(3-(2-(tert-butyl)-5-(2-((1-(methylsulfonyl)-piperidin-4-yl)amino)-pyrimidin-4-yl)thiazol-4-yl)-2-fluoro-phenyl)-2-phenylpiperidine-1-sulfonamide] |
| 88.9 | CC(C)(C)c1nc(-c2cccc(NS(=O)(=O)N3Cc4ccccc4C3)c2F)c(-c2ccnc(NC3CCN(S(C)(=O)=O)CC3)n2)s1 [Example 69] |
| 94 | CC(C)(C)c1nc(-c2cccc(NS(=O)(=O)N3Cc4ccc(F)cc4C3)c2F)c(-c2ccnc(NC3CCN(S(C)(=O)=O)CC3)n2)s1 [Example 70, N-(3-(2-(tert-butyl)-5-(2-((1-(methylsulfonyl)-piperidin-4-yl)amino)-pyrimidin-4-yl)thiazol-4-yl)-2-fluoro-phenyl)-5-fluoroisoindoline-2-sulfonamide] |
| 76 | CC(C)(C)c1nc(-c2cccc(NS(=O)(=O)N3Cc4cccc(F)c4C3)c2F)c(-c2ccnc(NC3CCN(S(C)(=O)=O)CC3)n2)s1 [Example 71, N-(3-(2-(tert-butyl)-5-(2-((1-(methylsulfonyl)-piperidin-4-yl)amino)-pyrimidin-4-yl)thiazol-4-yl)-2-fluoro-phenyl)-4-fluoroisoindoline-2-sulfonamide] |
| 185 | COc1ccc2c(c1)CN(S(=O)(=O)Nc1cccc(-c3nc(C(C)(C)C)sc3-c3ccnc(NC4CCN(S(C)(=O)=O)CC4)n3)c1F)C2 [Example 72, N-(3-(2-(tert-butyl)-5-(2-((1-(methylsulfonyl)-piperidin-4-yl)amino)-pyrimidin-4-yl)thiazol-4-yl)-2-fluoro-phenyl)-5-methoxyisoindoline-2-sulfonamide] |
| 58 | CC(C)(C)c1nc(-c2cccc(NS(=O)(=O)N3CCc4ccccc43)c2F)c(-c2ccnc(NC3CCN(S(C)(=O)=O)CC3)n2)s1 [Example 73, N-(3-(2-(tert-butyl)-5-(2-((1-(methylsulfonyl)-piperidin-4-yl)amino)-pyrimidin-4-yl)thiazol-4-yl)-2-fluoro-phenyl)indoline-1-sulfonamide] |
| 180 | CC(C)(C)c1nc(-c2cccc(NS(=O)(=O)N3CCc4ccccc4C3)c2F)c(-c2ccnc(NC3CCN(S(C)(=O)=O)CC3)n2)s1 [Example 74, N-(3-(2-(tert-butyl)-5-(2-((1-(methylsulfonyl)-piperidin-4-yl)amino)-pyrimidin-4-yl)thiazol-4-yl)-2-fluoro-phenyl)-3,4-dihydro-isoquinoline-2(1H)-sulfonamide] |
| 65 | CNS(=O)(=O)N1CCC(Nc2nccc(-c3sc(C(C)(C)C)nc3-c3cccc(NS(=O)(=O)N4Cc5ccccc5C4)c3F)n2)CC1 [Example 75, N-(3-(2-(tert-butyl)-5-(2-((1-(N-methylsulfamoyl)piperidin-4-yl)amino)-pyrimidin-4-yl)thiazol-4-yl)-2-fluoro-phenyl)-isoindoline-2-sulfonamide] |
| 65 | CC(C)(C)c1nc(-c2cccc(NS(=O)(=O)N3Cc4ccccc4C3)c2F)c(-c2ccnc(NC3CCN(S(N)(=O)=O)CC3)n2)s1 [Example 76, N-(3-(2-(tert-butyl)-5-(2-((1-sulfamoyl-piperidin-4-yl)amino)pyrimidin-4-yl)thiazol-4-yl)-2-fluorophenyl)-isoindoline-2-sulfonamide] |
| 367 | CC(C)(C)c1nc(-c2cccc(NS(=O)(=O)N3Cc4cc(F)c(F)cc4C3)c2F)c(-c2ccnc(NC3CCN(S(C)(=O)=O)CC3)n2)s1 [Example 77] |
| 65.6 | COc1cccc2c1CN(S(=O)(=O)Nc1cccc(-c3nc(C(C)(C)C)sc3-c3ccnc(NC4CCN(S(C)(=O)=O)CC4)n3)c1F)C2 [Example 78, N-(3-(2-(tert-butyl)-5-(2-((1-(methylsulfonyl)-piperidin-4-yl)amino)-pyrimidin-4-yl)thiazol-4-yl)-2-fluoro-phenyl)-4-methoxyisoindoline-2-sulfonamide] |
| 220 | CC(C)(C)c1nc(-c2cccc(NS(=O)(=O)N3Cc4ccccc4C3)c2F)c(-c2ccnc(Nc3ccc(N4CCNCC4)cc3)n2)s1 [Example 79, N-(3-(2-(tert-butyl)-5-(2-((4-(piperazin-1-yl)-phenyl)amino)pyrimidin-4-yl)thiazol-4-yl)-2-fluorophenyl)-isoindoline-2-sulfonamide] |
| 172 | CC(C)(C)c1nc(-c2cccc(NS(=O)(=O)N3CCCc4ccccc4C3)c2F)c(-c2ccnc(NC3CCN(S(C)(=O)=O)CC3)n2)s1 [Example 80, N-(3-(2-(tert-butyl)-5-(2-((1-(methylsulfonyl)-piperidin-4-yl)amino)-pyrimidin-4-yl)thiazol-4-yl)-2-fluorophenyl)-1,3,4,5-tetrahydro-2H-benzo[c]azepine-2-sulfonamide] |
| 3730 | CC(C)(C)c1nc(-c2cccc(NS(=O)(=O)N3CCc4ccccc4CC3)c2F)c(-c2ccnc(NC3CCN(S(C)(=O)=O)CC3)n2)s1 [Example 81, N-(3-(2-(tert-butyl)-5-(2-((1-(methylsulfonyl)-piperidin-4-yl)amino)-pyrimidin-4-yl)thiazol-4-yl)-2-fluoro-phenyl)-1,2,4,5-tetrahydro-3H-benzo[d]azepine-3-sulfonamide] |
| 850 | CC(C)(C)c1nc(-c2cccc(NS(=O)(=O)N3CCCCc4ccccc43)c2F)c(-c2ccnc(NC3CCN(S(C)(=O)=O)CC3)n2)s1 [Example 82, N-(3-(2-(tert-butyl)-5-(2-((1-(methylsulfonyl)piperidin-4-yl)amino)-pyrimidin-4-yl)thiazol-4-yl)-2-fluorophenyl)-2,3,4,5-tetrahydro-1H-benzo[b]azepine-1-sulfonamide] |
| 1470 | CC(C)(C)c1nc(-c2cccc(NS(=O)(=O)N3CCn4cncc4C3)c2F)c(-c2ccnc(NC3CCN(S(C)(=O)=O)CC3)n2)s1 [Example 83, N-(3-(2-(tert-butyl)-5-(2-((1-(methylsulfonyl)-piperidin-4-yl)amino)-pyrimidin-4-yl)thiazol-4-yl)-2-fluoro-phenyl)-5,6-dihydroimidazo [1,5-a]-pyrazine-7 (8H)-sulfonamide] |
| 1920 | CC(C)(C)c1nc(-c2cccc(NS(=O)(=O)N3CCn4ccnc4C3)c2F)c(-c2ccnc(NC3CCN(S(C)(=O)=O)CC3)n2)s1 [Example 84, N-(3-(2-(tert-butyl)-5-(2-((1-(methylsulfonyl)-piperidin-4-yl)amino)-pyrimidin-4-yl)thiazol-4-yl)-2-fluoro-phenyl)-5,6-dihydroimidazo [1,2-a]-pyrazine-7(8H)-sulfonamide] |
| 394 | Cn1ncc2c1CN(S(=O)(=O)Nc1cccc(-c3nc(C(C)(C)C)sc3-c3ccnc(NC4CCN(S(C)(=O)=O)CC4)n3)c1F)C2 [Example 85, N-(3-(2-(tert-butyl)-5-(2-((1-(methylsulfonyl)-piperidin-4-yl)amino)-pyrimidin-4-yl)thiazol-4-yl)-2-fluoro-phenyl)-1-methyl-4,6-dihydro-pyrrolo[3,4-c]pyrazole-5(1H)-sulfonamide] |
| 484 | Cn1cc2c(n1)CN(S(=O)(=O)Nc1cccc(-c3nc(C(C)(C)C)sc3-c3ccnc(NC4CCN(S(C)(=O)=O)CC4)n3)c1F)C2 [Example 86, N-(3-(2-(tert-butyl)-5-(2-((1-(methylsulfonyl)-piperidin-4-yl)amino)-pyrimidin-4-yl)thiazol-4-yl)-2-fluoro-phenyl)-2-methyl-2,6-dihydro-pyrrolo[3,4-c]pyrazole-5(4H)-sulfonamide] |
| 325 | COc1cc2c(cc1OC)CN(S(=O)(=O)Nc1cccc(-c3nc(C(C)(C)C)sc3-c3ccnc(NC4CCN(S(C)(=O)=O)CC4)n3)c1F)C2 [Example 87, N-(3-(2-(tert-butyl)-5-(2-((1-(methylsulfonyl)-piperidin-4-yl)amino)-pyrimidin-4-yl)thiazol-4-yl)-2-fluorophenyl)-5,6-dimethoxy-isoindoline-2-sulfonamide] |
